According to patent publication US8324245B2, “Quinoline derivative and quinazoline derivative inhibiting self-phosphorylation of hepatocytus proliferator receptor, and medicinal composition containing the same” (Kyowa Hakko Kirin Co., Ltd., priority 2001, dated 2012):

Tests used:
[1] = target: T1, met (HGF receptor) in human epidermal cancer cells A431 (Homo sapiens, UniProt P08581); test: Inhibitory activity against met-autophosphorylation using ELISA method (1), HGF-stimulated A431 cells; format: cell-based; conditions: HGF 50 ng/ml stimulation, read-out: IC50 (concentration necessary for inhibiting 50% of met phosphorylation)
T1 construct: endogenous in cells; host or cells: A431 human epidermal cancer cells
T1 sequence (P08581 25-1390): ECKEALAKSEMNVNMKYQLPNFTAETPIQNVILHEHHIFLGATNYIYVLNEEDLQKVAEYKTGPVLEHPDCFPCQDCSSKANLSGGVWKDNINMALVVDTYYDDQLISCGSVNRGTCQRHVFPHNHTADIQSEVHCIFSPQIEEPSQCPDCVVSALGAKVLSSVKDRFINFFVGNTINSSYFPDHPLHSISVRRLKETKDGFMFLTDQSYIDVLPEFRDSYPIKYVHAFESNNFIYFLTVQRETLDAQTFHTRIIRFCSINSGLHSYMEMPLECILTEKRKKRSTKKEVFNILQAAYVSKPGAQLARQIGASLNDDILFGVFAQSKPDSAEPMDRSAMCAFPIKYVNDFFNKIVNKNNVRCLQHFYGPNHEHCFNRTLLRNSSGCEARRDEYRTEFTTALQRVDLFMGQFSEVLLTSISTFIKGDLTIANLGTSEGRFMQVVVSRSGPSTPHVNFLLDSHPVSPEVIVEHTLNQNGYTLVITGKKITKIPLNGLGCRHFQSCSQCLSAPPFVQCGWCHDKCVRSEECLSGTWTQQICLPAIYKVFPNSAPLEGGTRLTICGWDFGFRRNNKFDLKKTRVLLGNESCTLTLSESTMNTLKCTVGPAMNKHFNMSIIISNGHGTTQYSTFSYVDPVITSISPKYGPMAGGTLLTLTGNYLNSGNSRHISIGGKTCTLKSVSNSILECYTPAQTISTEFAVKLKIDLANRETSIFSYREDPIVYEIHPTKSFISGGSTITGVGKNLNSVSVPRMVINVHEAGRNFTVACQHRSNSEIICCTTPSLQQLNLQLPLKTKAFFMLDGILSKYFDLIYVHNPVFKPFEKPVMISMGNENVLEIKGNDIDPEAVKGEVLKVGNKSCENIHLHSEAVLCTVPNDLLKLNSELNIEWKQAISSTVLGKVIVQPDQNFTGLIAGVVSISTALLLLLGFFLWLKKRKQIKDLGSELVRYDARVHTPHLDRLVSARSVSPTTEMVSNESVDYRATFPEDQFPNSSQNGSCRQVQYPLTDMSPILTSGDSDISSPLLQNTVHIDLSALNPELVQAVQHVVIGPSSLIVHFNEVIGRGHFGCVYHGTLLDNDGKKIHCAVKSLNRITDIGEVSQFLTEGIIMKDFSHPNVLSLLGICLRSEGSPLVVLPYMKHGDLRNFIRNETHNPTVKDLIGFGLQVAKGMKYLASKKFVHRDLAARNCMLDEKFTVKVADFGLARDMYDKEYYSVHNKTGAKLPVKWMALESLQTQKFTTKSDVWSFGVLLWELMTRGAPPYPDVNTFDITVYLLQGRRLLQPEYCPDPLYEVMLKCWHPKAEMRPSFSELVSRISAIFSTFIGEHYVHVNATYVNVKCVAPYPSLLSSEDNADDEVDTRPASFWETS
Procedure: Human epidermal cancer cells A431 were cultured in an RPMI 1640 medium containing 10% fetal calf serum (purchased from GIBCO BRL) within a 5% carbon dioxide incubator until 50 to 90% confluent. Cells were cultured with RPMI medium containing 0.1% fetal calf serum in 96-well flat-bottom plate in an amount of 3×10^4 per well, and were incubated at 37° C. overnight. The medium was then replaced by a fresh RPMI medium containing 0.1% fetal calf serum. A solution of the test compound in dimethyl sulfoxide was added to each well, and the cells were incubated at 37° C. for additional one hr. A human recombinant hepatocyte growth factor (hereinafter abbreviated to “HGF”) was added to a final concentration of 50 ng/ml, and the stimulation of cells was carried out at 37° C. for 5 min. The medium was removed, the cells were washed with phosphate buffered saline (pH 7.4), and 50 μl of lysis buffer (20 mM HEPES (pH 7.4), 150 mM NaCl, 0.2% Triton X-100, 10% glycerol, 5 mM sodium orthovanadylate, 5 mM disodium ethylenediaminetetraacetate, and 2 mM Na4P2O7) was then added thereto. […]
Separately, phosphate buffered saline (50 μl, pH 7.4) containing 5 μg/ml of anti-phospho-tyrosine antibody (PY20; purchased from Transduction Laboratories) was added to a microplate for ELISA (Maxisorp; purchased from NUNC), followed by gentle agitation at 4° C. overnight to coat the surface of the wells with the antibody. […] After washing, the whole quantity of the cell extract was transferred to the wells, and the plate was then allowed to incubate at 4° C. overnight. […] After a suitable level of color development, a reaction termination solution was added to stop the reaction, and the absorbance at 450 nm was measured with a microplate reader. The met-phosphorylation inhibitory activity for each well was determined by presuming the absorbance with the addition of HGF and the vehicle to compounds to be 0% met-phosphorylation inhibitory activity and the absorbance with the addition of the vehicle to compounds and without HGF to be 100% met phosphorylation inhibitory activity. […]

[2] = tested on: Human gastric cancer cells (MKN 45); test: Tumor growth inhibitory activity against human gastric cancer cells (MKN 45) in nude mice; format: in vivo; conditions: oral, twice a day for 5 days
Procedure: Human gastric cancer cells (MKN 45) were transplanted into nude mice. […] The test compound suspended in 0.5% methylcellulose was orally administered twice a day for 5 days.
(§1) Only 0.5% methylcellulose was administered to the control group in the manner as in the test groups. The tumor growth inhibition rate (TGIR) was calculated as follows: The tumor growth inhibition rate (TGIR)=(1−TX/CX)×100 wherein CX represents the relative tumor volume at day X for the control group when the tumor volume at the day of the start of the administration was presumed to be 1; and TX represents the relative tumor volume for test compound administration groups.

[3] = tested on: human lung cancer cells (LC6); test: Tumor growth inhibitory activity against various human tumor cells in nude mice: LC6; format: in vivo; conditions: LC6, Oral, 30 × 2 mg/kg × number of times, 5 days
Procedure: (§2) Human gastric cancer cells (MKN 45) (obtained from RIKEN), human brain tumor cells (U87MG) (obtained from ATCC), human pancreatic cancer cells (KP4) (obtained from RIKEN), human pancreatic cancer cells (SUIT-2) (obtained from National Kyushu Cancer Center), and human signet-ring type gastric cancer cells (NUGC-4) (obtained from RIKEN), or human lung cancer cells (LC6) (obtained from Central Laboratories for Experimental Animals) were transplanted into nude mice. […] The test compound suspended in 0.5% methylcellulose was orally administered once or twice a day for 5 days. Only 0.5% methylcellulose was administered to the control group in the manner as in the test groups. Alternatively, the test compound dissolved in physiological saline (with a 1 N aqueous hydrochloric acid solution added thereto) was intraveneously injected once a day for 5 days, and only physiological saline (with a 1 N aqueous hydrochloric acid solution added thereto) was administered to the control group in the same manner as in the test groups. The tumor growth inhibition rate (TGIR) was calculated as follows: The tumor growth inhibition rate (TGIR)=(1−TX/CX)×100 wherein CX represents the relative tumor volume at the 5th day for the control group when the tumor volume at the day of the start of the administration was presumed to be 1; and TX represents the relative tumor volume for test compound administration groups.

[4] = tested on: Human brain tumor cells (U87MG); test: Tumor growth inhibitory activity against human brain tumor cells (U87MG) in nude mice; format: in vivo; conditions: oral, twice a day for 5 days
Procedure: Human brain tumor cells (U87MG) were transplanted into nude mice. […] The test compound suspended in 0.5% methylcellulose was orally administered twice a day for 5 days.
as §1

[5] = tested on: human signet-ring type gastric cancer cells (NUGC-4); test: Tumor growth inhibitory activity against various human tumor cells in nude mice: NUGC-4; format: in vivo; conditions: NUGC-4, Oral, 30 × 2 mg/kg × number of times, 5 days
Procedure: as §2, with “Alternatively, the test compound dissolved in physiological saline (with a 1 N aqueous hydrochloric acid solution added thereto) was intraveneously injected once a day for 5 days, and only physiological saline (with a 1 N aqueous hydrochloric acid solution added thereto) was administered to the control group in the same manner as in the test groups.” left out

[6] = tested on: human pancreatic cancer cells (KP4); test: Tumor growth inhibitory activity against various human tumor cells in nude mice: KP4; format: in vivo; conditions: KP-4, Oral, 5 days
Procedure: as §2

[7] = target: T2, met (HGF receptor) in human gastric cancer cells MKN45 (Homo sapiens, UniProt P08581); test: Inhibitory activity against met-autophosphorylation using ELISA method (2), MKN45 cells, HGF-independent; format: cell-based
T2 construct: endogenous in cells; host or cells: MKN45 human gastric cancer cells
T2 sequence (P08581 25-1390): as above
Outline: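 MKN45 cells, 3×10^4 per well in RPMI with 0.1% FCS overnight, were exposed to compound in DMSO for 1 h at 37 °C without HGF. Lysates were captured on anti-phosphotyrosine (PY20) plates, Met detected with anti-Met and peroxidase secondary antibody, absorbance at 450 nm.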

[8] = tested on: Human gastric cancer cells (MKN 45); test: Tumor growth inhibitory activity against various human tumor cells in nude mice: MKN 45; format: in vivo; conditions: Mus musculus, MKN-45, po, 120 h, MKN45, Oral, 5 days; read-out: TGIR
Procedure: as §2

[9] = tested on: Human brain tumor cells (U87MG); test: Tumor growth inhibitory activity against various human tumor cells in nude mice: U87MG; format: in vivo; conditions: Oral, 30 × 2 mg/kg × number of times, 5 days
Procedure: as §2

[10] = tested on: human pancreatic cancer cells (SUIT-2); test: Tumor growth inhibitory activity against various human tumor cells in nude mice: SUIT-2; format: in vivo; conditions: SUIT-2, Oral, 25 × 1 mg/kg × number of times, 5 days
Procedure: as §2, with “Alternatively, the test compound dissolved in physiological saline (with a 1 N aqueous hydrochloric acid solution added thereto) was intraveneously injected once a day for 5 days, and only physiological saline (with a 1 N aqueous hydrochloric acid solution added thereto) was administered to the control group in the same manner as in the test groups.” left out

Row | IC50 [1] | IC50 [7] | Compound | TGIR (tumor growth inhibition rate) ([2]; dose 10 mg/kg/time) | TGIR (tumor growth inhibition rate) ([2]; dose 30 mg/kg/time) | TGIR [3] | inhibition in vivo at 30 mg/kg [8] | TGIR [9] | other results
1 | 11.8 nM | 18.1 nM | COc1cc2nccc(Oc3ccc(NC(=S)NC(=O)Cc4ccc(F)cc4)cc3F)c2cc1OC [Example 2, N-[4-(6,7-dimethoxyquinolin-4-yloxy)-3-fluoro-phenyl]-N′-[2-(4-fluorophenyl)acetyl]thiourea] | 31% | 65% | 27% | – | – | TGIR ([4]; 10 mg/kg/time): 38%; TGIR ([4]; 30 mg/kg/time): 61%; TGIR [5]: 75%; TGIR ([6]; 30 × 2 mg/kg × number of times): 54%
2 | 19.7 nM | 30.4 nM | COc1cc2nccc(Oc3ccc(NC(=O)NC(=O)Cc4ccc(F)cc4)c(F)c3)c2cc1OC [Example 3, N-[4-(6,7-dimethoxyquinolin-4-yloxy)-2-fluoro-phenyl]-N′-[2-(4-fluorophenyl)acetyl]urea] | 24% | 52% | 18% | – | – | TGIR ([4]; 30 mg/kg/time): 51%; TGIR ([4]; 100 mg/kg/time): 60%; TGIR [5]: 71%; TGIR ([6]; 30 × 2 mg/kg × number of times): 31%
3 | 58.1 nM | 20.2 nM | COc1cc2c(Oc3ccc(NC(=O)NC(=O)Cc4ccccc4)cc3F)ccnc2cc1OCCCN1CCOCC1 [Example 11, 1-{3-fluoro-4-[6-methoxy-7-(3-morpholin-4-yl-propoxy)quinolin-4-yloxy]phenyl}-3-phenylacetylurea] | 23% | 52% | 26% | 63% | 62% | –
4 | – | 22.8 nM | COc1cc2c(Oc3ccc(NC(=S)NC(=O)Cc4ccccc4)cc3F)ccnc2cc1OCCCN1CCOCC1 [Example 268, N-{3-fluoro-4-[6-methoxy-7-(3-morpholin-4-yl-propoxy)quinolin-4-yloxy]phenyl}-N′-phenylacetyl-thiourea] | – | 81% | 35% | – | 74% | –
5 | – | 75.3 nM | COc1cc2c(Oc3ccc(NC(=S)NC(=O)Cc4ccccc4Cl)cc3F)ccnc2cc1OCCCN1CCOCC1 [Example 285, 1-[2-(2-Chloro-phenyl)-acetyl]-3-{3-fluoro-4-[6-methoxy-7-(3-morpholin-4-yl-propoxy)-quinolin-4-yloxy]-phenyl}-thiourea] | – | – | 48% | 66% | – | –
6 | – | 29.3 nM | COc1cc2c(Oc3ccc(NC(=O)NC(=O)Cc4ccc(F)cc4)c(F)c3)ccnc2cc1OCCCN1CCOCC1 [Example 286, 1-{2-Fluoro-4-[6-methoxy-7-(3-morpholin-4-yl-propoxy)-quinolin-4-yloxy]-phenyl}-3-[2-(4-fluoro-phenyl)-acetyl]-urea] | – | – | 37% | 64% | 66% | –
7 | – | 21.1 nM | COc1cc2c(Oc3ccc(NC(=S)NC(=O)Cc4ccc(F)cc4)cc3F)ccnc2cc1OCC(O)CN1CCOCC1 (stereo not drawn) [Example 313, 1-{3-Fluoro-4-[7-(2-hydroxy-3-morpholin-4-yl-propoxy)-6-methoxy-quinolin-4-yloxy]-phenyl}-3-[2-(4-fluorophenyl)-acetyl]-thiourea] | – | – | – | – | – | TGIR [10]: 28%; TGIR ([6]; 12.5 × 1 mg/kg × number of times): 34%; TGIR ([6]; 25 × 1 mg/kg × number of times): 45%; TGIR ([6]; 50 × 1 mg/kg × number of times): 48%
8 | – | 21.1 nM | COc1cc2c(Oc3ccc(NC(=S)NC(=O)Cc4ccccc4C)cc3F)ccnc2cc1OCC(O)CN1CCOCC1 (stereo not drawn) [Example 333] | – | – | – | 75% | – | –
9 | – | 22.7 nM | COc1cc2c(Oc3ccc(NC(=S)NC(=O)Cc4cccc(C)c4)cc3F)ccnc2cc1OCC(O)CN1CCOCC1 (stereo not drawn) [Example 334] | – | – | – | 65% | – | –
